In the NIST ThermoML archive (doi:10.1016/j.fluid.2014.08.002):
± gives the expanded uncertainty stated by the source.

Conditions: 298.15 K; 101.3 kPa; Liquid; Vibrating tube method

| mass density | Compound |
| --- | --- |
| 944.2 ± 0.3 kg/m3 | CC1(C)OCCO1 [2,2-dimethyl-1,3-dioxolane] |
| 789.5 ± 0.2 kg/m3 | CCO [ethanol] |
| 683.8 ± 0.3 kg/m3 | CCCCCCC [heptane] |

| Compound | mass density |
| --- | --- |
| Cc1ccccc1 [toluene] | 866.9 ± 0.2 kg/m3 |
